Measured values taken from patent US4994473A, “Pyridyl containing insecticides” (ICI Americas Inc., priority 1988, dated 1991).

The molecules below were run on Musca domestica (assay: Housefly contact test, mortality after 48 hours). Conditions: μg of the test compound per 25 female flies.
Type: in vivo, Housefly Musca domestica
Protocol: (§1) The compounds in Table I above were tested for insecticidal activity using the following testing procedures. LC50 values, based on the results of these tests and calculated according to dosage-mortality curves, are expressed in Table II.
The test compound was diluted in acetone and aliquots pipetted onto the bottom of aluminum dishes. To ensure even spreading of the chemical on the bottom of the dishes, 1 ml of acetone containing 0.01% peanut oil was also added to each dish. After all solvents had evaporated, the dishes were placed in circular cardboard cages containing 25 female houseflies, 1-2 days old. The cages were covered on the bottom with cellophane and on the top with tulle netting, and each contained a sugar-water saturated cotton plug for maintenance of the flies. Mortality was recorded after 48 hours. Test levels ranged from 100 μg/25 female houseflies downward. The LC-50 value is expressed below in Table II under the heading "HF", in terms of μg of the test compound per 25 female flies.
In the case of `C=C(C)C(=Nc1ccc(Cl)nc1)OCc1ccc(F)c(Oc2ccc(Cl)cc2)c1` [Compound 48], the “LC50 HF” value is reported as under 100 µg. In the case of `CC(C)C(=Nc1ccc(OCC(F)(F)F)nc1)OCc1cccc(Oc2ccccc2)c1` [Compound 40], the “LC50 HF” value is reported as under 100 µg. With `Clc1ccc(N=C(OCc2cccc(Oc3ccccc3)c2)C2CC2)cn1` [Compound 7] the “LC50 HF” value was over 100 µg. In the case of `COc1ccc(N=C(OCc2cccc(Oc3ccccc3)c2)C2CC2)cn1` [Compound 15], the “LC50 HF” value is reported as 58 µg.

What follows are molecules tested on Aphis fabae (assay: Black bean aphid spray test on nasturtium plants, mortality after 48 hours). Conditions: mixed ages, percent of test compound in sprayed solution.
Type: in vivo, Black Bean Aphid Aphis fabae (Scop.)
Protocol: as §1
Black Bean Aphid Aphis fabae (Scop.)
Nasturtium plants (Tropaeolum sp.) approximately 5 cm tall, were transplanted into sandy loam soil in small cups and infested with 25-50 black bean aphids of mixed ages. Twenty-four hours later they were sprayed to the point of runoff with 50--50 acetone-water solutions of the test compound. Treated plants were held in the greenhouse and mortality was recorded after 48 hours. Test concentrations ranged from 0.05% downward. The LC-50 value is expressed below in Table II under the heading "BA" in terms of percent of the test compound in the sprayed solution.
With `C=C(C)C(=Nc1ccc(Cl)nc1)OCc1ccc(F)c(Oc2ccc(Cl)cc2)c1` [Compound 48] the “LC50 BA” value was under 0.05%. For `CC(C)C(=Nc1ccc(OCC(F)(F)F)nc1)OCc1cccc(Oc2ccccc2)c1` [Compound 40], the “LC50 BA” value was 0.0003%. With `Clc1ccc(N=C(OCc2cccc(Oc3ccccc3)c2)C2CC2)cn1` [Compound 7] the “LC50 BA” value was over 0.05%. For `COc1ccc(N=C(OCc2cccc(Oc3ccccc3)c2)C2CC2)cn1` [Compound 15], the “LC50 BA” value was over 0.05%.

What follows are molecules tested on Tetranychus urticae (assay: Two-spotted mite acaricidal test on pinto bean plants). Conditions: adults, percent concentration in solution, 5-7 days.
Type: in vivo, two-spotted mite Tetranychus urticae (Koch)
Source text: Acaricidal Evaluation Test
The two-spotted mite (2SM) [Tetranychus urticae (Koch)]was employed in tests for miticides. The test procedure was as follows:
Pinto bean plants (Phaseolus sp.) approximately 10 cm tall, were transplanted into sandy loam soil in small cups and thoroughly infested with two-spotted mites of mixed ages and sexes. Twenty-four hours later the infested plants were inverted and dipped for 2-3 seconds in 50--50 acetone-water solutions of the test compound. Treated plants were held in the greenhouse, and 5-7 days later mortality was determined for both adult mites and the nymphs hatching from eggs which were on the plants at the time of treatment. Test concentrations ranged from 0.05% downward. The LC-50 value is expressed below in Table II under the headings "2SM-A" (i.e., adults) and "2SM-E" (i.e. eggs) in terms of percent concentration of the test compound in the solution.
For `C=C(C)C(=Nc1ccc(Cl)nc1)OCc1ccc(F)c(Oc2ccc(Cl)cc2)c1` [Compound 48], the “LC50 2-SM A” value was over 0.05%. In the case of `CC(C)C(=Nc1ccc(OCC(F)(F)F)nc1)OCc1cccc(Oc2ccccc2)c1` [Compound 40], the “LC50 2-SM A” value is reported as 0.006%. In the case of `Clc1ccc(N=C(OCc2cccc(Oc3ccccc3)c2)C2CC2)cn1` [Compound 7], the “LC50 2-SM A” value is reported as over 0.05%. In the case of `COc1ccc(N=C(OCc2cccc(Oc3ccccc3)c2)C2CC2)cn1` [Compound 15], the “LC50 2-SM A” value is reported as over 0.05%.

Same assay, conditions: eggs, percent concentration in solution, 5-7 days
`C=C(C)C(=Nc1ccc(Cl)nc1)OCc1ccc(F)c(Oc2ccc(Cl)cc2)c1` [Compound 48] was tested, and the “LC50 2-SM E” value was over 0.05%. With `CC(C)C(=Nc1ccc(OCC(F)(F)F)nc1)OCc1cccc(Oc2ccccc2)c1` [Compound 40] the “LC50 2-SM E” value was 0.006%. In the case of `Clc1ccc(N=C(OCc2cccc(Oc3ccccc3)c2)C2CC2)cn1` [Compound 7], the “LC50 2-SM E” value is reported as over 0.05%. In the case of `COc1ccc(N=C(OCc2cccc(Oc3ccccc3)c2)C2CC2)cn1` [Compound 15], the “LC50 2-SM E” value is reported as over 0.05%.

What follows are molecules tested on Heliothis virescens (assay: Tobacco budworm egg dip test). Conditions: 2-day old eggs (TBW-E), percent of test compound in solution.
Type: in vivo, Tobacco Budworm Heliothis virescens (Fabricius)
Protocol: as §1
Tobacco Budworm Heliothis virescens (Fabricius)
Eggs: Paper towel patches of 2-day old eggs of the tobacco budworm were dipped in acetone solutions of the test compound and placed in petri dishes containing a portion of larval rearing medium. Treated eggs were maintained at 78° F. and mortality was recorded after all control eggs had hatched and the young larvae were feeding on the media. Test concentrations ranged from 0.1% downward. The LC-50 value is expressed below in Table II under the heading "TBW-E" in terms of percent of the test compound in the solution.
In the case of `C=C(C)C(=Nc1ccc(Cl)nc1)OCc1ccc(F)c(Oc2ccc(Cl)cc2)c1` [Compound 48], the “LC50 TBW” value is reported as under 0.1%. With `CC(C)C(=Nc1ccc(OCC(F)(F)F)nc1)OCc1cccc(Oc2ccccc2)c1` [Compound 40] the “LC50 TBW” value was 0.045%. For `Clc1ccc(N=C(OCc2cccc(Oc3ccccc3)c2)C2CC2)cn1` [Compound 7], the “LC50 TBW” value was over 0.1%. For `COc1ccc(N=C(OCc2cccc(Oc3ccccc3)c2)C2CC2)cn1` [Compound 15], the “LC50 TBW” value was over 0.1%.

These molecules were tested on Trichoplusia ni (assay: Cabbage looper larvae leaf-dip test). Conditions: second instar larvae, percent of test compound in solution, 3-5 days.
Type: in vivo, Cabbage Looper Trichoplusia ni (Hubner)
Protocol: as §1
Cabbage Looper Trichoplusia ni (Hubner)
The test compound was diluted in a 50--50 acetone-water solution Cotyledons of hyzini squash (Calabacita abobrinha), approximately 1×1.5 inches, were immersed in the test solutions for 2-3 seconds and placed on a wire screen to dry. The dried leaves were p1aced in petri dishes containing a moistened piece of filter paper and infested with 5 secondinstar cabbage looper larvae. The dishes were placed in a high humidity chamber. Mortality of the larvae was recorded 3-5 days later. Test concentrations ranged from 0.1% downward. The LC-50 value is expressed below in Table II under the heading "CL" in terms of percent of the test compound in solution.
With `C=C(C)C(=Nc1ccc(Cl)nc1)OCc1ccc(F)c(Oc2ccc(Cl)cc2)c1` [Compound 48] the “LC50 CL” value was under 0.1%. For `CC(C)C(=Nc1ccc(OCC(F)(F)F)nc1)OCc1cccc(Oc2ccccc2)c1` [Compound 40], the “LC50 CL” value was 0.00029%. With `Clc1ccc(N=C(OCc2cccc(Oc3ccccc3)c2)C2CC2)cn1` [Compound 7] the “LC50 CL” value was 0.022%. For `COc1ccc(N=C(OCc2cccc(Oc3ccccc3)c2)C2CC2)cn1` [Compound 15], the “LC50 CL” value was 0.05%.

What follows are molecules tested on Diabrotica undecimpunctata undecimpunctata (assay: Western spotted cucumber beetle larvae soil test). Conditions: Diabrotica eggs/larvae; ppm of the test compound in the soil.
Type: in vivo
Protocol: as §1
Western Spotted Cucumber Beetle Larvae Diabrotica undecimpunctata undecimpunctata (Mannherheim)
Ten grams of moist potting soil was placed in a plastic cup. The test compound was dissolved in acetone. A 0.05 ml aliquot of the test sample, diluted to the desired concentration, was added to the soil. The cup was capped and the soil was mixed on a vortex mixer for approximately 15 seconds. An indentation was made on the surface of the soil and approximately 50 Diabrotica eggs were added. The eggs were covered with soil and maintained at room temperature (approximately 70° F. or 21° C.). Four days later a section of Romaine lettuce (Latuca sativa) leaf was placed in the treated cups. One week later the cups were examined for live larvae. Test concentrations ranged from 25 ppm downward. The LC-50 value is expressed below in Table II under the heading "Diabrotica" in terms of ppm of the test compound in the soil.
With `C=C(C)C(=Nc1ccc(Cl)nc1)OCc1ccc(F)c(Oc2ccc(Cl)cc2)c1` [Compound 48] the “LC50 Diabrotica” value was over 25 ppm. With `CC(C)C(=Nc1ccc(OCC(F)(F)F)nc1)OCc1cccc(Oc2ccccc2)c1` [Compound 40] the “LC50 Diabrotica” value was over 25 ppm. `Clc1ccc(N=C(OCc2cccc(Oc3ccccc3)c2)C2CC2)cn1` [Compound 7] was tested, and the “LC50 Diabrotica” value was over 25 ppm. For `COc1ccc(N=C(OCc2cccc(Oc3ccccc3)c2)C2CC2)cn1` [Compound 15], the “LC50 Diabrotica” value was over 25 ppm.
